Experimental findings from ChEMBL document CHEMBL3352097, “Small molecule inhibitors targeting activator protein 1 (AP-1)” (J Med Chem, 2014) are described below.

A word on the IC50: it is the concentration that inhibits the measured activity by half. The EC50 is the concentration giving half of the maximal effect. A high value points to lower potency in that assay.

Bridge positions count the residues as written; N and C are the ends. Peptide text beside a SMILES is read from it.

Assay [1] deals with T1, Transcription factor Jun (Homo sapiens, UniProt P05412). Kind of assay: Inhibition of AP-1 (unknown origin) expressed in TPA-stimulated mouse NIH3T3 cells by luciferase reporter gene assay. The assay is classed as cell-based.
The target of assay [2] is T1, Transcription factor Jun. Kind of assay: Inhibition of AP-1 bZIP domain DNA binding activity (unknown origin) by ELISA. On the technique in general: In an ELISA, binding on a coated surface is turned into a signal by an enzyme label.
In assay [3] the target is T1, Transcription factor Jun. Kind of assay: Inhibition of AP-1 (unknown origin) binding to AP-1 oligonucleotide by gel shift assay. In general terms: A gel shift assay detects complexes by their altered migration in electrophoresis.
The target in assay [4] is Transcription factor Jun (Rattus norvegicus, UniProt P17325). As to the kind of experiment: Inhibition of AP-1-mediated collagenase production in IL1alpha-stimulated Lewis rat synovial cells.
The species named for a further assay is Gallus gallus. As to the kind of experiment: Antiangiogenic activity in chicken embryo assessed as inhibition of neovascularization at 10 ug. The class given is functional.
In assay [5] the target is T1, Transcription factor Jun. Kind of assay: Inhibition of AP-1-mediated transcriptional activation in HEK293 cells by luciferase reporter gene assay. The class given is cell-based. Background: A reporter such as luciferase makes a cellular process visible.
Assay [6] concerns Rattus norvegicus. As to the kind of experiment: Antiinflammatory activity in carrageenan injection-induced rat inflammation model assessed as inhibition of rat paw edema. The assay is classed as functional.
Assay [7] deals with T1, Transcription factor Jun. As to the kind of experiment: Inhibition of AP-1-mediated transcriptional activation in human Jurkat cells by luciferase reporter gene assay. The assay is classed as cell-based.
For assay [8], the species on record is Rattus norvegicus. As to the kind of experiment: Antiinflammatory activity in adjuvant-induced arthritis rat model assessed as reduction in swelling in noninjected foot. The assay is classed as functional.
Assay [9] has as its target T1, Transcription factor Jun. Kind of assay: Inhibition of AP-1 (unknown origin) by FRET assay.
In assay [10] the target is T2, Retinoic acid receptor alpha (Homo sapiens, UniProt P10276).
T2 sequence (P10276 whole entry): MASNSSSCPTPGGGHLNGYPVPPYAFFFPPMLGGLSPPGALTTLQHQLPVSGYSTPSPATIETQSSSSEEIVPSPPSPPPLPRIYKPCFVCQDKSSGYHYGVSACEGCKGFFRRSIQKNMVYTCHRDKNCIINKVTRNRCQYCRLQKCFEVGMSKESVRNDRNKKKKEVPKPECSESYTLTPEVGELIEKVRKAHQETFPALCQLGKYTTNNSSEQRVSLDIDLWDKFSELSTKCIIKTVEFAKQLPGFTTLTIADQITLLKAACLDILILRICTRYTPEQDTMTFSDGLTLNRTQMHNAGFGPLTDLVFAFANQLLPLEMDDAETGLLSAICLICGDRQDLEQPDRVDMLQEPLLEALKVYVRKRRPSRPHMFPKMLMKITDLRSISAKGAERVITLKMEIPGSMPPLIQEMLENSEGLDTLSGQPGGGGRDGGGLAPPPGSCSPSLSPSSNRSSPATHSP
As to the kind of experiment: Activity at RARalpha (unknown origin).

In assay [11] the target is T3, Retinoic acid receptor beta (Homo sapiens, UniProt P10826).
T3 sequence (P10826 whole entry): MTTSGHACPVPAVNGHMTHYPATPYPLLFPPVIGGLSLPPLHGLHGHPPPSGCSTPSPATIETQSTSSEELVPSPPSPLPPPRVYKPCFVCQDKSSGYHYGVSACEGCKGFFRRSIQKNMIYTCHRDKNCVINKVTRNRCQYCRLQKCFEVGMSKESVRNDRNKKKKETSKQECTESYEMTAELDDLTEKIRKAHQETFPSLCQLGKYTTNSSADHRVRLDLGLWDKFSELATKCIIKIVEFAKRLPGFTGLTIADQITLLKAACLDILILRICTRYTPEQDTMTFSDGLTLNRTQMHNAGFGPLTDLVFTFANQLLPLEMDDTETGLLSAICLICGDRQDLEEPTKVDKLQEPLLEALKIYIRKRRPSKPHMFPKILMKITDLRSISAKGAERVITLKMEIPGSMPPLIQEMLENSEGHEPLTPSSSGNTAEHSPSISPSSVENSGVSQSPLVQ
Kind of assay: Activity at RARbeta (unknown origin).

Assay [12] has as its target T4, Retinoic acid receptor gamma (Homo sapiens, UniProt P13631).
T4 sequence (P13631 whole entry): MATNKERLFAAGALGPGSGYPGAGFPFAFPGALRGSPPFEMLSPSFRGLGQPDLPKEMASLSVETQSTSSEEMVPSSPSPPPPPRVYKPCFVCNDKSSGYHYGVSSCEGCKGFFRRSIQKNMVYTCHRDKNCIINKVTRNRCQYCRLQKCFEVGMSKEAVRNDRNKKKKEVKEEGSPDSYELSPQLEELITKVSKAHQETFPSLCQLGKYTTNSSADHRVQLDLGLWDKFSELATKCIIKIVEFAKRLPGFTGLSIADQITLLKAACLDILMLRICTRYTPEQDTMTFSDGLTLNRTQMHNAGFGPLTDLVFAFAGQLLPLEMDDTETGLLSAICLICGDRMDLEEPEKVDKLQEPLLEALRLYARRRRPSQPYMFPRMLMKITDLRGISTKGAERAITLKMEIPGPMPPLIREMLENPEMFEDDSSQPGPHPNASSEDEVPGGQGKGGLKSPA
Kind of assay: Activity at RARgamma (unknown origin).

In assay [13] the target is T5, Retinoic acid receptor RXR-alpha (Homo sapiens, UniProt P19793).
T5 sequence (P19793 whole entry): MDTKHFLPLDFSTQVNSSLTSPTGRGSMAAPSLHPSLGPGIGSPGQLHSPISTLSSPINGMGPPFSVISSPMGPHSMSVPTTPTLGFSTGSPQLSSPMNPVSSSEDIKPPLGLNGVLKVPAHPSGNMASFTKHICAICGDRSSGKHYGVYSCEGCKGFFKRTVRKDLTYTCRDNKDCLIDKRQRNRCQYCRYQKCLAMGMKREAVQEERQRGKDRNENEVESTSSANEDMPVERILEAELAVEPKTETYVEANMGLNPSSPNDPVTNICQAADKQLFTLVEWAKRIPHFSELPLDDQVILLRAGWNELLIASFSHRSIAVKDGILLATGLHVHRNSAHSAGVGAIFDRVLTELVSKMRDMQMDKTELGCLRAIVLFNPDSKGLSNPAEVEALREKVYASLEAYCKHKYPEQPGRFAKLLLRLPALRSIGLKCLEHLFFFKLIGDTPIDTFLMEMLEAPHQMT
As to the kind of experiment: Activity at RXRalpha (unknown origin).

For assay [14], the target named is T1, Transcription factor Jun. Kind of assay: Inhibition of UVB-induced AP-1 activation (unknown origin) by cell-based assay.
Another assay concerns the target Transcription factor AP1 (Homo sapiens, UniProt P01100+P05412). Kind of assay: Inhibition of Fos-Jun dimer formation (unknown origin). The class given is protein-complex assay.

T1 sequence (P05412 whole entry, the tested form may be a part): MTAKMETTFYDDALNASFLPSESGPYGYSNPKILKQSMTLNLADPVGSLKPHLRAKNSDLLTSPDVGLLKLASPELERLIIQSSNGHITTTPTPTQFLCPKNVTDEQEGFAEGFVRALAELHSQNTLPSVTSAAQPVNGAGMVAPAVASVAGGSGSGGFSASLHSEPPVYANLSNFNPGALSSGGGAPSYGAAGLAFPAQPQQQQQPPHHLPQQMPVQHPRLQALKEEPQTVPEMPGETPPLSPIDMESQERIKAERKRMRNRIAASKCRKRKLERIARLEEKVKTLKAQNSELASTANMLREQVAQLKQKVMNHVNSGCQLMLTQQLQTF
Chain of Transcription factor AP1 (P05412 whole entry): as the sequence (P05412 whole entry, the tested form may be a part) above
Chain of Transcription factor AP1 (P01100 whole entry): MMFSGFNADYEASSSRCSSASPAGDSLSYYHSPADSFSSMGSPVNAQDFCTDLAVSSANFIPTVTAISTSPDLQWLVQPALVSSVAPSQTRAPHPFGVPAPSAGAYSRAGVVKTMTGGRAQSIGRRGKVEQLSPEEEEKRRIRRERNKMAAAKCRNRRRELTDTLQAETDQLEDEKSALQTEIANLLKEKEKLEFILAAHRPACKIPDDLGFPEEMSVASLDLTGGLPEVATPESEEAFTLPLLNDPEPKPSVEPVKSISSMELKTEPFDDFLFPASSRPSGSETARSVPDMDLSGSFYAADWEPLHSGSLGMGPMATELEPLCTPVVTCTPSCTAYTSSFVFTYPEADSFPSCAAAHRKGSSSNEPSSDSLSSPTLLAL
Chain of Transcription factor Jun (Rattus norvegicus, UniProt P17325) (P17325 whole entry): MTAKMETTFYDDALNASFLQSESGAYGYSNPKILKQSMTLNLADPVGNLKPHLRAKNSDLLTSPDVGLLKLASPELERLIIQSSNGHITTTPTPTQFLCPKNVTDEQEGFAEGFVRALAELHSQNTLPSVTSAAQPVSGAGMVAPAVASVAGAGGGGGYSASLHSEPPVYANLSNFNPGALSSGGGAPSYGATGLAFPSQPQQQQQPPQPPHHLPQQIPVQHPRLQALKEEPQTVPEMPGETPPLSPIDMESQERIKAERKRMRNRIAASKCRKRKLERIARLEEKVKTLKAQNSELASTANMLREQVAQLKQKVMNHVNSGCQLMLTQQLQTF

Turning to `CC(C)COc1ccc(C(=O)c2ccc(OCC(C)C)c(CCC(=O)O)c2)cc1`, on Transcription factor Jun [1], it took 5 µM to reach half-maximal inhibition (IC50).

Turning to `O=C(O)CCc1cc(C(=O)c2ccc(OC3CCCC3)cc2O)ccc1OCc1ccc2c(O)noc2c1`, the IC50 on Transcription factor Jun [2] and at Transcription factor Jun [1] was 10 µM each time.

In the case of `CCCc1c(C(=O)O)c(O)cc2c1C(=O)c1c(O)cccc1C2=O`, the IC50 is 100 µM at Transcription factor Jun [3] and 60 µM on Transcription factor Jun [4].

Regarding `COc1cc(/C=C/C(=O)/C=C(O)/C=C/c2cc(OC)c(O)c([N+](=O)[O-])c2)cc([N+](=O)[O-])c1O`, the “inhibition (INH)” value in the assay listed under Gallus gallus came to 68%.

The compound `CNc1nc(-c2ccccc2)c(-c2nc3ccccc3c(=O)n2-c2ccccc2OC)s1` showed an IC50 at Transcription factor Jun [5] of 0.5 µM. The “inhibition (INH)” value with Rattus norvegicus [6] was 56%.

For the compound `COc1cccc2nc(-c3cccs3)nc(NN3C(=O)C=C(C)C3=O)c12` [AS-602868], at Transcription factor Jun [7], the IC50 came out at 0.008 µM. Also, the “inhibition (INH)” value in the assay filed under Rattus norvegicus [8] is given as 65%.

`COC1=C(C)[C@@H]2CC(=O)O[C@@H]3C[C@H]4[C@H](C)[C@@H](O)[C@H](O)C(=O)[C@]4(C)[C@@H](C1=O)[C@@]32C` [NOTHOSPONDIN] displayed an EC50 on Transcription factor Jun [9] of 0.13 µM.

Regarding `CC1=C(/C=C/C(=C/C=C/C(C)=C/C(=O)O)c2ccc(C)cc2)C(C)(C)CCC1`, the EC50 in assay [10], in [11], in assay [12] and in assay [13] was more than 1 µM in each case.

For the compound `CC(=O)N[C@H]1CSSC[C@@H](C(N)=O)NC(=O)CNC(=O)[C@H](CC(=O)O)NC(=O)[C@H](C)NC(=O)[C@H](CC(C)C)NC(=O)[C@H](CC(=O)O)NC(=O)[C@H](CC(C)C)NC(=O)[C@H](CCC(N)=O)NC(=O)CNC1=O` (Ac-CGQLDLADGC-NH2; disulfide 1-10), the IC50 at Transcription factor Jun [2] came out at 64 µM.

As to `COC(=O)C1=CO[C@@H](O[C@@H]2O[C@H](CO)[C@@H](O)[C@H](O)[C@H]2O)[C@H]2[C@@H]1[C@@H]1O[C@@H]1[C@]2(O)C(=O)O/C=C(\C(=O)O)c1ccc(O)c(OC)c1`, the IC50 at Transcription factor Jun [14] amounted to 29 µM.

For `CC(Cc1ccc(O)c(O)c1)C(C)Cc1ccc(O)c(O)c1` (stereo unspecified) [NORDIHYDROGUAIARETIC ACID], 0.0079 µM corresponded to half-maximal inhibition against Transcription factor AP1 (IC50).

The compound `COc1cc(CC(C)C(C)Cc2ccc(O)c(OC)c2)ccc1O` (stereo unspecified) [DIHYDROGUAIARETIC ACID] displayed an IC50 against Transcription factor AP1 of 0.21 µM.

At Transcription factor Jun [9], `CC[C@](C)(O)C(=O)O[C@H]1C(=O)O[C@@H]2C[C@H]3C(C)=CC(=O)[C@@H](O)[C@]3(C)[C@H]3[C@@]4(O)OC[C@]32[C@@H]1[C@@H](C)[C@H]4O` [GLAUCARUBINONE] gave an EC50 of 1.49 µM.

`COC(=O)C1=CO[C@@H](O[C@@H]2O[C@H](CO)[C@@H](O)[C@H](O)[C@H]2O)[C@H]2[C@H]1C(C)=C[C@@]2(O)C(=O)O/C=C(\C(=O)O)c1ccc(O)c(OC)c1` showed an IC50 on Transcription factor Jun [14] of 69.6 µM.
